Literature values in patent US6995188B2 (priority 2002, dated 2006).
Where two headings read alike, the source gives them in different places.

Experiments:
[1] = system: P388 lymphocytic leukemia cells; details: mouse, in vivo, ip, cited from earlier work
[2] = system: patients with advanced leukemia; details: 8 patients, 3 days per week for 3 consecutive weeks; cited from earlier work
[3] = system: APL and non-APL cell lines; details: compared with arsenic trioxide; cited from earlier work

CCCC[As](CCCC)S[C@@H]1O[C@H](COC(C)=O)[C@@H](OC(C)=O)[C@H](OC(C)=O)[C@H]1OC(C)=O [Compound 1, 2,3,4,6-tetra-O-acetyl-1-S-dibutylarsino-1-thio-β-D-glucopyranose]
% T/C ([1]; 100 mg/kg): 117%

CC(=O)N[C@@H]1[C@@H](OC(C)=O)[C@H](OC(C)=O)[C@@H](COC(C)=O)O[C@H]1S[As](C)C [Compound 18, 2-acetamido-3,4,6-tri-O-acetyl-2-deoxy-1-S-dimethylarsino-1-thio-β-D-glucopyranose]
% T/C ([1]; 50 mg/kg): 136%

Nc1nc(N)nc(Nc2ccc([As]3SCC(CO)S3)cc2)n1 (centres unmarked) [melarsoprol]
antitumor effects [2]: Only one patient (with chronic lymphocytic leukemia) displayed antitumor effects
side effects [2]: most experienced neurological side effects
activity against APL and non-APL cell lines [3]: activity at least equivalent to that of arsenic trioxide

CC[As](CC)S[C@@H]1O[C@H](COC(C)=O)[C@@H](OC(C)=O)[C@H](OC(C)=O)[C@H]1OC(C)=O [Compound 3, 2,3,4,6-tetra-O-acetyl-1-S-diethylarsino-1-thio-β-D-glucopyranose]
% T/C ([1]; 100 mg/kg): 180%

CC(=O)OC[C@H]1O[C@@H](S[As](C)C)[C@H](OC(C)=O)[C@@H](OC(C)=O)[C@H]1OC(C)=O [Compound 16, 2,3,4,6-tetra-O-acetyl-1-S-dimethylarsino-1-thio-β-D-galactopyranose]
% T/C ([1]; 100 mg/kg): 129%

CC(=O)OC[C@H]1O[C@@H](S[As](C2CCCCC2)C2CCCCC2)[C@H](OC(C)=O)[C@@H](OC(C)=O)[C@@H]1OC(C)=O [Compound 6, 2,3,4,6-tetra-O-acetyl-1-S-dicyclohexylarsino-1-thio-β-D-glucopyranose]
% T/C ([1]; 400 mg/kg): Toxic

C[As](C)SCC(N)C(=O)O (racemic) [Compound 10, S-dimethylarsino-DL-cysteine]
% T/C ([1]; 50 mg/kg): 110%

CCC[As](CCC)S[C@@H]1O[C@H](COC(C)=O)[C@@H](OC(C)=O)[C@H](OC(C)=O)[C@H]1OC(C)=O [Compound 2, 2,3,4,6-tetra-O-acetyl-1-S-dipropylarsino-1-thio-β-D-glucopyranose]
% T/C ([1]; 200 mg/kg): 124%

CC(C)CCC[C@@H](C)[C@H]1CC[C@H]2[C@@H]3CC=C4C[C@@H]([Se][As](C)C)CC[C@]4(C)[C@H]3CC[C@]12C [Compound 15, Se-dimethylarsino-selenocholesterol]
% T/C ([1]; 200 mg/kg): 129%

CCCCCCCCCCCCCCCC[As](CCCCCCCCCCCCCCCC)S[C@@H]1O[C@H](COC(C)=O)[C@@H](OC(C)=O)[C@H](OC(C)=O)[C@H]1OC(C)=O [Compound 5, 2,3,4,6-tetra-O-acetyl-1-S-dihexadecylarsino-1-thio-β-D-glucopyranose]
% T/C ([1]; 50 mg/kg): 125%

CC(=O)N[C@H]1[C@@H](OC(C)=O)O[C@H](CS[As](C)C)[C@@H](OC(C)=O)[C@@H]1OC(C)=O [Compound 20, 2-acetamido-1,3,4-tri-O-acetyl-2-deoxy-6-S-dimethylarsino-6-thio-α-D-glucopyranose]
% T/C ([1]; 100 mg/kg): 136%

2,3,4,6-tetra-O-acetyl-1-S-hydroxyethylmethyl-1-thio-β-D-glucopyranose [Compound 4]
% T/C ([1]; 100 mg/kg): 116%
